Patent US20090030068A1, “Antitumour Compounds” (PHARMA MAR, S.A., priority 2005, published 2009)
Values after ≈ are worked out from the molar mass of the structure shown.

Legend:
HT29 = experiment: SRB colorimetric cell growth inhibition assay, HT29; assay type: cell-based
Procedure: (§1) The assays of antitumor activity allow detecting extracts or compounds with cytotoxic activity (cell death) or cytostatic activity (growth inhibition) in in vitro cultures of tumor cells of human origin.
(§2) The quantification of cell growth in vitro was carried out by means of a calorimetric assay with sulforhodamine B (SRB) (following an adaptation of the previously described method by Philip Skehan et al. 1990, J. Natl. Cancer Inst., 82:1107-1112).
(§3) This type of assay uses 96-well culture microplates, (Mosmann, 1983, Faircloth, 1988). Most of the cell lines used are obtained from the American Type Culture Collection (ATCC) and derived from different types of human tumors.
(§4) The cell cultures are maintained in DMEM culture medium (supplemented with 10% fetal bovine serum (FBS), 1% penicillin/streptomycin 1% glutamine) at 37° C., 5% CO2 and 98% humidity.
(§5) For the assays, the cells are trypsinized and seeded in 96-well microplates at different concentrations depending on the cell line, and are incubated for 24 hours in an active ingredient-free medium for their stabilization. The cultures are then treated (final concentration varies depending on the type of assay) with carrier (DMSO:DMEM, 1:1) or active ingredient. After 48 hours of exposure to the active ingredient, the antitumor effect is measured by means of the previously mentioned SRB method, which basically consists of: fixing the cells with a 1% glutaraldehyde solution (30 min, RT), washing of the fixer in PBS (3 washings, RT), staining the cultures with a 0.4% SRB solution (30 min, RT), washing of the colorant in 1% acetic acid solution (3 washings, RT), air-drying the plates and final extraction of the colorant with Tris buffer. The quantification of the assay is carried out by means of optical density reading of the plates in a spectrophotometric microplate reader at a single wavelength of 490 nm. […]

MDA-MB-231 = experiment: SRB colorimetric cell growth inhibition assay, MDA-MB-231; assay type: cell-based
Procedure: as §1, §2, §3, §4, §5

A549 = experiment: SRB colorimetric cell growth inhibition assay, A549; assay type: cell-based
Procedure: as §1, §2, §3, §4, §5

P388 cancer cells = details: cited from earlier work
HCT-8 cancer cells = details: cited from earlier work
A549 cancer cells = details: cited from earlier work
MDA-MB-231 cancer cells = details: cited from earlier work
L1210 cells = details: cited from earlier work
P388 leukemia = details: cited from earlier work; for antitumor activity / toxicity: P388 leukemia in CDF1 mice
KB cells = details: cited from earlier work

## COC1CC(C)OC(CCC(C)C(O)C(C)C2OC(=O)/C=C/C(C)=C/CC(O)CC3C=CCC(CC(OC)C(C)C(O)CC(O)C(C)C(C(C)C(O)C(C)CCC4CC(OC)CC(C)O4)OC(=O)/C(C)=C/CC(O)CC4C=CCC(CC(OC)C(C)C(O)CC(O)C2C)O4)O3)C1 (stereo not shown) [Compound A]
HT29; Colon HT29, 48 hours of exposure, concentration causing total growth inhibition
  TGI: 8.81E−7 Molar
HT29; Homo sapiens, HT-29, 48 h, read-out: LC50
  LC50 (concentration killing 50% of cells): 2200 nM
HT29; Homo sapiens, HT-29, Colon HT29, 48 hours of exposure, concentration causing 50% growth inhibition
  GI50: 338 nM
MDA-MB-231; Breast MDA-MB-231, 48 hours of exposure, concentration causing total growth inhibition
  TGI: 2.35E−6 Molar
MDA-MB-231; Homo sapiens, MDA-MB-231, 48 h, read-out: LC50
  CC50: 4770 nM
MDA-MB-231; Homo sapiens, Breast MDA-MB-231, 48 hours of exposure, concentration causing 50% growth inhibition
  GI50: 808 nM
A549; Homo sapiens, A549, 48 h, read-out: LC50
  CC50: 529 nM
A549; Homo sapiens, NSCL (Lung) A549, 48 hours of exposure, concentration causing 50% growth inhibition
  GI50: 228 nM
A549; NSCL (Lung) A549, 48 hours of exposure, concentration causing total growth inhibition
  TGI: 3.38E−7 Molar

## CO[C@H]1C[C@H](CC[C@H](C)[C@H](O)[C@H](C)[C@H]2OC(=O)/C(C)=C/C[C@H](O)C[C@@H]3C=CC[C@@H](C[C@H](OC)[C@@H](C)[C@@H](O)C[C@@H](O)[C@H](C)[C@@H]([C@@H](C)[C@@H](O)[C@@H](C)CC[C@H]4C[C@H](OC)C[C@H](C)O4)OC(=O)/C(C)=C/C[C@H](O)C[C@@H]4C=CC[C@@H](C[C@H](OC)[C@@H](C)[C@@H](O)C[C@@H](O)[C@@H]2C)O4)O3)O[C@@H](C)C1 [Misakinolide A]
P388 cancer cells
  in vitro antitumor activity: in vitro antitumor activity
HCT-8 cancer cells
  in vitro antitumor activity: in vitro antitumor activity
A549 cancer cells
  in vitro antitumor activity: in vitro antitumor activity
MDA-MB-231 cancer cells
  in vitro antitumor activity: in vitro antitumor activity
L1210 cells
  IC50 (cytotoxicity): 0.035 µg/mL (≈ 0.0262 µM)
P388 leukemia; dose of 0.1 mg/kg (mouse), P388 leukemia
  T/C: 140%

## CO[C@H]1C[C@H](CC[C@H](C)[C@H](O)[C@H](C)[C@H]2OC(=O)/C=C/C(C)=C/C[C@H](O)C[C@@H]3C=CC[C@@H](C[C@H](OC)[C@@H](C)[C@@H](O)C[C@@H](O)[C@H](C)[C@@H]([C@@H](C)[C@@H](O)[C@@H](C)CC[C@H]4C[C@H](OC)C[C@H](C)O4)OC(=O)/C=C/C(C)=C/C[C@H](O)C[C@@H]4C=CC[C@@H](C[C@H](OC)[C@@H](C)[C@@H](O)C[C@@H](O)[C@@H]2C)O4)O3)O[C@@H](C)C1 [Swinholide A]
L1210 cells
  IC50 (cytotoxicity): 0.03 µg/mL (≈ 0.0216 µM)
KB cells
  IC50 (cytotoxicity): 0.04 µg/mL (≈ 0.0288 µM)
P388 leukemia
  antitumor activity: did not show promising antitumor activity
  toxicity: toxic

## COC1CC(C)OC(CCC(C)C(O)C(C)C2OC(=O)/C=C\C(C)=C\CC(O)CC3C=CCC(CC(OC)C(C)C(O)CC(O)C(C)C(C(C)C(O)C(C)CCC4CC(O)CC(C)O4)OC(=O)/C=C\C(C)=C\CC(O)CC4C=CCC(CC(OC)C(C)C(O)CC(O)C2C)O4)O3)C1 (stereo not shown) [Swinholide C]
L1210 cells
  IC50 (cytotoxicity): 0.14 µg/mL (≈ 0.102 µM)
KB cells
  IC50 (cytotoxicity): 0.05 µg/mL (≈ 0.0363 µM)

## isoswinholide A
L1210 cells
  IC50 (cytotoxicity): 1.35 µg/mL
KB cells
  IC50 (cytotoxicity): 1.1 µg/mL
P388 leukemia
  antitumor activity: did not show promising antitumor activity
  toxicity: toxic
